# Assay results as given in PMC6197744, “Triazolo[4,5-d]pyrimidines as Validated General Control Nonderepressible 2 (GCN2) Protein Kinase Inhibitors Reduce Growth of Leukemia Cells” (Computational and Structural Biotechnology Journal, 2018).
# Biological target: T1, human GCN2 (Homo sapiens, UniProt Q9P2K8)
# T1 construct: purchased Reaction Biology Corporation (Malvern, PA)
# Assay: radiometric HotSpot kinase assay
# Format: biochemical
# Details: ATP at the ATP Km of GCN2; means of two independent experiments
# T1 sequence (Q9P2K8 whole entry): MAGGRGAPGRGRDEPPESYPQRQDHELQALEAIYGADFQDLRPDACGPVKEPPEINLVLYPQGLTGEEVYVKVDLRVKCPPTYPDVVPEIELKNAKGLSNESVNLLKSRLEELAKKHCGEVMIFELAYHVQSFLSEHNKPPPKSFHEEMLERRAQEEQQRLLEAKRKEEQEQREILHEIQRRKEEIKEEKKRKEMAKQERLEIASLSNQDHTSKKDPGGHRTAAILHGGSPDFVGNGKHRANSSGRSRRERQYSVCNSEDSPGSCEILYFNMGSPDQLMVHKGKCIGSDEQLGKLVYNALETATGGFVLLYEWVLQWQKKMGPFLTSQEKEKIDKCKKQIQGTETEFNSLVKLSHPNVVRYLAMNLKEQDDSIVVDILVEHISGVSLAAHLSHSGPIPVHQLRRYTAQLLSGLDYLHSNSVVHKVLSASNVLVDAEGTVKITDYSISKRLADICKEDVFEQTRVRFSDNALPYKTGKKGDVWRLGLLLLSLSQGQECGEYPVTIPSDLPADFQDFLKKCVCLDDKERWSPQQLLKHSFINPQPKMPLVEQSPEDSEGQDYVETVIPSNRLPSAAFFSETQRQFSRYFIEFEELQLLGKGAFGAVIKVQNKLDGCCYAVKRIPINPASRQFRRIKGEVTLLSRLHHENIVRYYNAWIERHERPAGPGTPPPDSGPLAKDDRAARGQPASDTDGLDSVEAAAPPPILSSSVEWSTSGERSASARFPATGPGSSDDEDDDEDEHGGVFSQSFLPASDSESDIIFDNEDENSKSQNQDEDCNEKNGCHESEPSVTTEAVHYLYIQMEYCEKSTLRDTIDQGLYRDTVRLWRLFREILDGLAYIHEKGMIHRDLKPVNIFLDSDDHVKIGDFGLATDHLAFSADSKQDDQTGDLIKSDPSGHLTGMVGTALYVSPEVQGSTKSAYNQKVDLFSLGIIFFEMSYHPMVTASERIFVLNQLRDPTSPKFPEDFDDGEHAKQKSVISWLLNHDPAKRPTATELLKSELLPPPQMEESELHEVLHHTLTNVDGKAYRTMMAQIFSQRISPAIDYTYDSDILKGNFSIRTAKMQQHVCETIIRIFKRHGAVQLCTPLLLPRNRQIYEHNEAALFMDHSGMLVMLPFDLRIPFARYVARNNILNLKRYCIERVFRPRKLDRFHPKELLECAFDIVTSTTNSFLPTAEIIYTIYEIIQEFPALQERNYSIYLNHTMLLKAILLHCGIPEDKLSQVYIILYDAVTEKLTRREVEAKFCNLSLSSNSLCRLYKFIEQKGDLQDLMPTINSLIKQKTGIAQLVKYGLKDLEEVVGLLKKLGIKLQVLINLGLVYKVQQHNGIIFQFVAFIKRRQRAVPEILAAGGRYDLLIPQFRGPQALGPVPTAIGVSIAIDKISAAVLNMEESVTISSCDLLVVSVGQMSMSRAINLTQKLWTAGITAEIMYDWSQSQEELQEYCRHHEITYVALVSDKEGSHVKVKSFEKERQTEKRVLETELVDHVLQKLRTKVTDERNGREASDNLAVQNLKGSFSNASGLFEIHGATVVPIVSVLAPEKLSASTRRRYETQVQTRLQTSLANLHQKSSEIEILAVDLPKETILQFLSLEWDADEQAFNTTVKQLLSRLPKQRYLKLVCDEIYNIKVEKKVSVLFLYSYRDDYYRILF
structure (smiles),measurement,value
"CCOc1ccc(-n2nnc3cnc(Nc4cnn(CC)c4)nc32)cc1 [Compound 2, 3-(4-Ethoxyphenyl)-N-(1-ethyl-1H-pyrazol-4-yl)-3H-[1,2,3]triazolo[4,5-d]pyrimidin-5-amine]",IC50,18.6 nM
